The values that follow are results of earlier work, collected in patent US20160296513A1 (Teva Pharmaceutical Industries Ltd., priority 2013, published 2016).

The subject of series [1] is relapsing-remitting multiple sclerosis (RRMS). The conditions noted are these: CARE-MS I, vs interferon beta-1a.
For series [2], the system named is first-line treatment-refractory RRMS. The following applies: CARE-MS II.
Series [3] concerns multiple sclerosis patients. The following applies: human, in vivo.
The conditions of series [4]: in vivo.
Series [5] relates to genes related to antigen presentation and corresponding inflammatory pathways. The following applies: mainly via the NFkB pathway.

In the case of “Alemtuzumab: recombinant DNA-derived humanized monoclonal IgGlx antibody raised against CD52”, the relapse result in series [1] (12 mg/day IV 5 days at Month 0, 3 days at Month 12) is recorded as “reduction of relapse”. Moreover, the disability endpoints entry in series [1] is on record as “did not show benefit”. Also, in series [2], the accumulation of disability result is “sustain accumulation of disability” and the relapse rates result is given as “reduce relapse rates”. In series [3], the “depletion repletion pattern for T cells, B cells and monocytes” value is “well characterized depletion repletion pattern”; the “effect on inflammatory axis” value is “large and sustained”.

For `CCN(C(=O)c1c(O)c2c(Cl)cccc2n(C)c1=O)c1ccccc1` [Laquinimod, 5-chloro-N-ethyl-4-hydroxy-1-methyl-2-oxo-N-phenyl-1,2-dihydroquinoline-3-carboxamide], in series [4], the oral bioavailability entry is “high”. Besides, in series [5], the “suppression of genes related to antigen presentation and corresponding inflammatory pathways” value is given as “induced suppression”. Moreover, the “neurodegeneration and non-relapse-dependent disability progression” value in the series on MS (in MS) was “showed potential for slowing neurodegeneration and reducing non-relapse-dependent disability progression”. In the series on MS (unexplained by inflammatory markers), the “Confirmed Disease Progression (CDP)” value is on record as “sustain Confirmed Disease Progression (CDP)”.
